Results as given in patent US12351616B2, “Peptides and combination of peptides for use in immunotherapy against esophageal cancer and other cancers” (Immatics Biotechnologies GmbH, priority 2015, dated 2025).

Tests used:
CD8+ T cells = test: In vitro T-cell priming assay with aAPCs loaded with peptide/MHC and anti-CD28, pMHC multimer readout; format: cell-based, human; details: for Wells positive [%]: Table 10B; for Donors: percentage of positive donors; for Donors / wells: Table 10A; for wells: percentage of positive wells
Excerpt: In order to obtain information regarding the immunogenicity of the TUMAPs of the present invention, the inventors performed investigations using an in vitro T-cell priming assay based on repeated stimulations of CD8+ T cells with artificial antigen presenting cells (aAPCs) loaded with peptide/MHC complexes and anti-CD28 antibody.
In order to perform in vitro stimulations by artificial antigen presenting cells loaded with peptide-MHC complex (pMHC) and anti-CD28 antibody, the inventors first isolated CD8+ T cells from fresh HLA-A*02 leukapheresis products via positive selection using CD8 microbeads (Miltenyi Biotec, Bergisch-Gladbach, Germany) of healthy donors obtained from the University clinics Mannheim, Germany, after informed consent.
PBMCs and isolated CD8+ lymphocytes were incubated in T-cell medium (TCM) until use consisting of RPMI-Glutamax (Invitrogen, Karlsruhe, Germany) supplemented with 10% heat inactivated human AB serum (PAN-Biotech, Aidenbach, Germany), 100 U/ml Penicillin/100 μg/ml Streptomycin (Cambrex, Cologne, Germany), 1 mM sodium pyruvate (CC Pro, Oberdorla, Germany), 20 μg/ml Gentamycin (Cambrex). 2.5 ng/ml IL-7 (PromoCell, Heidelberg, Germany) and 10 U/ml IL-2 (Novartis Pharma, Nurnberg, Germany) were also added to the TCM at this step.
Generation of pMHC/anti-CD28 coated beads, T-cell stimulations and readout was performed in a highly defined in vitro system using four different pMHC molecules per stimulation condition and 8 different pMHC molecules per readout condition.
The purified co-stimulatory mouse IgG2a anti human CD28 Ab 9.3 (Jung et al., 1987) was chemically biotinylated using Sulfo-N-hydroxysuccinimidobiotin as recommended by the manufacturer (Perbio, Bonn, Germany). Beads used were 5.6 μm diameter streptavidin coated polystyrene particles (Bangs Laboratories, Illinois, USA).
800.000 beads/200 μl were coated in 96-well plates in the presence of 4×12.5 ng different biotin-pMHC, washed and 600 ng biotin anti-CD28 were added subsequently in a volume of 200 μl. Stimulations were initiated in 96-well plates by co-incubating 1×10^6 CD8+ T cells with 2×10^5 washed coated beads in 200 μl TCM supplemented with 5 ng/ml IL-12 (PromoCell) for 3 days at 37° C. Half of the medium was then exchanged by fresh TCM supplemented with 80 U/ml IL-2 and incubating was continued for 4 days at 37° C. This stimulation cycle was performed for a total of three times. For the pMHC multimer readout using 8 different pMHC molecules per condition, a two-dimensional combinatorial coding approach was used as previously described (Andersen et al., 2012) with minor modifications encompassing coupling to 5 different fluorochromes. Finally, multimeric analyses were performed by staining the cells with Live/dead near IR dye (Invitrogen, Karlsruhe, Germany), CD8-FITC antibody clone SK1 (BD, Heidelberg, Germany) and fluorescent pMHC multimers. For analysis, a BD LSRII SORP cytometer equipped with appropriate lasers and filters was used. Peptide specific cells were calculated as percentage of total CD8+ cells. Evaluation of multimeric analysis was done using the FlowJo software (Tree Star, Oregon, USA). In vitro priming of specific multimer+CD8+ lymphocytes was detected by comparing to negative control stimulations.

HLA-A*02:01 = HLA-A*02:01 (Homo sapiens, UniProt P04439, D140Y/D185E/D98H/E176V/E277Q/G131W/G231S/I119V/I121R/I166T/I218V/L300P/L318F/N151K/N90K/P208A/P217A/Q86G/Q94H/R138H/R169H/T345S); test: MHC binding assay: UV-ligand exchange with β2m ELISA; details: peptide exchange yield, binding to HLA-A*02:01
Excerpt: Candidate peptides for T cell based therapies according to the present invention were further tested for their MHC binding capacity (affinity). The individual peptide-MHC complexes were produced by UV-ligand exchange, where a UV-sensitive peptide is cleaved upon UV-irradiation, and exchanged with the peptide of interest as analyzed. Only peptide candidates that can effectively bind and stabilize the peptide-receptive MHC molecules prevent dissociation of the MHC complexes. To determine the yield of the exchange reaction, an ELISA was performed based on the detection of the light chain (β2m) of stabilized MHC complexes. The assay was performed as generally described in Rodenko et al. (Rodenko et al., 2006).
96 well MAXISorp plates (NUNC) were coated over night with 2 ug/ml streptavidin in PBS at room temperature, washed 4× and blocked for 1 h at 37° C. in 2% BSA containing blocking buffer. Refolded HLA-A*02:01/MLA-001 monomers served as standards, covering the range of 15-500 ng/ml. Peptide-MHC monomers of the UV-exchange reaction were diluted 100 fold in blocking buffer. Samples were incubated for 1 h at 37° C., washed four times, incubated with 2 ug/ml HRP conjugated anti-β2m for 1 h at 37° C., washed again and detected with TMB solution that is stopped with […]. Absorption was measured at 450 nm. Candidate peptides that show a high exchange yield (preferably higher than 50%, most preferred higher than 75%) are generally preferred for a generation and production of antibodies or fragments thereof, and/or T cell receptors or fragments thereof, as they show sufficient avidity to the MHC molecules and prevent dissociation of the MHC complexes.

Substance	Wells positive [%] (CD8+ T cells)	Peptide exchange (HLA-A*02:01)	Donors (CD8+ T cells)	wells (CD8+ T cells)
77 (VLVPYEPPQV; listed as Homo sapiens) [compound 77]	+ (<20% = +)	++ (≥20% = ++)		
69 (GLLVGSEKVTM; listed as Homo sapiens) [compound 69]	+ (<20% = +)	+++ (≥50 = +++)		
2 (SLYNLGGSKRISI; listed as Homo sapiens) [compound 2]	+ (<20% = +)	++++ (≥75% = ++++)		
1 (STYGGGLSV; listed as Homo sapiens) [compound 1]	+ (<20% = +)	+++ (≥50 = +++)		
12 (GLASRILDA; listed as Homo sapiens) [compound 12]	+ (<20% = +)	+++ (≥50 = +++)		
29 (SLDGTELQL; listed as Homo sapiens) [compound 29]	+ (<20% = +)	+++ (≥50 = +++)		
98 (VLFPNLKTV; listed as Homo sapiens) [compound 98]			++++ (>= 70% = ++++)	+ (<20% = +)
101 (AMTQLLAGV; listed as Homo sapiens) [compound 101]			+++ (50%-69% = +++)	++ (20%-49% = ++)
47 (VLASGFLTV; listed as Homo sapiens) [compound 47]	+++ (50%-69% = +++)	++++ (≥75% = ++++)		
6 (LLSGDLIFL; listed as Homo sapiens) [compound 6]	++ (20%-49% = ++)	+++ (≥50 = +++)		
5 (NLMASQPQL; listed as Homo sapiens) [compound 5]	+++ (50%-69% = +++)	+++ (≥50 = +++)		
94 (TLLQEQGTKTV; listed as Homo sapiens) [compound 94]			++ (20%-49% = ++)	+ (<20% = +)
97 (ELDRTPPEV; listed as Homo sapiens) [compound 97]			++++ (>= 70% = ++++)	++ (20%-49% = ++)
66 (LLDEKVQSV; listed as Homo sapiens) [compound 66]		+++ (≥50 = +++)		
35 (LLRFSQDNA; listed as Homo sapiens) [compound 35]		+++ (≥50 = +++)		
19 (GLAPFLLNAV; listed as Homo sapiens) [compound 19]	+ (<20% = +)	+++ (≥50 = +++)		
95 (LIQDRVAEV; listed as Homo sapiens) [compound 95]			++ (20%-49% = ++)	+ (<20% = +)
22 (KLNDTYVNV; listed as Homo sapiens) [compound 22]		+++ (≥50 = +++)		
